# pIC50: −log10 of the molar value. Where a name gives a salt, the structure may show the parent alone.
# What was measured:
# Format in all cases: biochemical
# Details in all cases: HeLa S3 lysate, sfGFP/mCherry ratio, 2 hrs at 30° C.
# ALK = test: In vitro transcription-translation (IVTT) reporter assay, ALK test sequence
# Outline: (§1)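 Coupled transcription-translation in HeLa S3 lysate with reporter plasmids encoding mCherry-P2A-3×FLAG-TEST-sfGFP behind an EMCV IRES. Compounds were half-log titrated (30 μM-0.1 μM in DMSO dilution plate) into master mix, then DNA was added. Reactions ran 2 hrs at 30° C, were PBS-quenched and read for fluorescence.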
# MYC = test: In vitro transcription-translation (IVTT) reporter assay, MYC test sequence
# Outline: as §1
# CCND1 = test: In vitro transcription-translation (IVTT) reporter assay, CCND1 test sequence
# From the text: (§2) All reporter constructs have been cloned into the pT7CFE1-CHis plasmid (ThermoFisher #88860) using Gibson assembly procedures (NEB #E2611L). The parental pT7CFE1-CHis plasmid contains an EMCV IRES at the 5′UTR for translation initiation, a multiple-cloning site (MCS) for gene insertion, an optional C-terminal His-epitope tag, and polyA sequence in the 3′UTR to regulate mRNA stability. All reporters are designed to be inserted at the MCS to include a red fluorescent protein (mCherry), P2A self-cleaving peptide which releases the preceding mCherry protein product, and a fusion open reading frame containing a 3×FLAG epitope, a peptide sequence of interest (TEST), and green fluorescent protein (sfGFP).
# (§3) Construct Plasmid Preparation: All plasmids are isolated from MACH1 cells (ThermoFisher) grown overnight in ampicillin-containing luria broth, and purified using ZymoPure Express Plasmid Midiprep Kit (Zymo Research). Constructs are sequenced verified and diluted to a working concentration of 110 ng/μL.
# (§4) HeLa S3 Lysate Preparation: HeLa S3 cell pellets are acquired from Ipracell/Ipratech (Belgium) and shipped as 4 mL frozen cell pellets on dry ice for storage at −80° C. until use. The procedure for lysate preparation is as follows. Prepare 1× Lysis Buffer, cold and stored on ice:
# (§5) Each preparation takes 8 cell pellets (4 ml packed volume each, approximately 1.0×10^9 cells per pellet). Thaw cell pellets from −80° C. on ice for 90 mins. Lay pellets horizontally on top of the ice and rotate every 30 mins to ensure even thawing. Once thawed, add 4 mL of cold lysis buffer to each pellet, and using a serological pipet, gently pipet up and down to break up clumps. Incubate resuspended cells in ice for an additional 30 mins (plunged into ice). During 30 min incubation, rinse and RNase-zap (Ambion) glass dounces (use loose pestle “A”), gently dry and place on ice until needed. Prepare RNase-free Eppendorf tubes for spinning and for batch storage. Add batch labels to 1.5-1.7 mL RNase-free microcentrifuge tubes (labeling scheme below). Each batch will have an extra 1.5-1.7 mL RNase-free microcentrifuge tube for 40 μL of lysate, label the top of this tube (labeling scheme below). After 30 min incubation, transfer all 8 mL of cell pellet to dounce. Cell lysis is complete after douncing 100 times. Aliquot cell lysis into 1.5-1.7 mL temporary-microcentrifuge tubes. Place tubes in centrifuge with “fins” out, and spin at 1,200 xg for 5 mins. After the first spin use a 1 mL pipet to resuspend each tube and repeat spin. This acts as an additional lysis step, is more vigorous and increases lysate yield. During second spin get liquid N2 and a fresh conical tube on ice.
# (§6) After spin is complete, transfer supernatant (lysate) from microcentrifuge tubes into the 50 mL conical tube and keep on ice. Repeat steps 10-14 for all other cell pellets until completed. Once all cell lysate has been transferred to the 50 mL conical tube pipet to mix so the solution is homogenous. Transfer 1 mL of lysate into batch-labeled microcentrifuge tubes and flash freeze in liquid nitrogen. Be sure to pipet up and down to mix throughout transfer step. Place all tubes in the […] for long-term storage.
# (§7) In vitro transcription-translation assay setup: Each assay includes a master mix containing lysate and shared components, a 96-well plate containing compound titrations for testing, a 96-well DNA plate with reporter constructs to be tested, 96-well skirted PCR plates, and 96-well flat-bottom, black, fluorescent assay plates. […]
# KRAS G12D = test: In vitro transcription-translation (IVTT) reporter assay, KRAS G12D test sequence
# Outline: as §1
# MCL-1 = test: In vitro transcription-translation (IVTT) reporter assay, MCL-1 test sequence
# From the text: as §2, §3, §4, §5, §6, §7
Structure (SMILES),pIC50 (ALK),pIC50 (MYC),pIC50 (CCND1),pIC50 (KRAS G12D),pIC50 (MCL-1)
COc1ccc(C[C@H]2NC[C@H](O)[C@H]2OC(=O)Cc2ccncc2)cc1 [V187056],> 5.00,> 5.00,> 5.00,,
COCCC(=O)OC1[C@@H](O)CN[C@@H]1Cc1ccc(OC)cc1 (stereo partly drawn) [V187168],> 5.00,> 5.00,> 5.00,,
"COc1ccc(C[C@H]2NC[C@H](O)[C@H]2OC(=O)CCNC(C)C)cc1 [V187155, (2R,3S,4S)-4-hydroxy-2-[(4-methoxyphenyl)methyl]pyrrolidin-3-yl 3-(isopropylamino)propanoate; trifluoroacetic acid]",4.70 to 5.00,< 4.52,> 5.00,< 4.52,
COc1ccc(C[C@H]2NC[C@H](O)[C@H]2OC(=O)CCCCCO)cc1 [V186777],> 5.00,> 5.00,> 5.00,> 5.00,
"COc1ccc(C[C@H]2NC[C@H](O)[C@H]2OC(=O)Cc2cnccn2)cc1 [V187088, (2R,3S,4S)-4-hydroxy-2-[(4-methoxyphenyl)methyl]pyrrolidin-3-yl 2-(pyrazin-2-yl)acetate]",> 5.00,> 5.00,> 5.00,> 5.00,
"CC(=O)O[C@@H]1[C@@H](O)CN[C@@H]1Cc1ccc([N+](=O)[O-])cc1 [V188168, (2R,3S,4S)-4-hydroxy-2-[(4-nitrophenyl)methyl]pyrrolidin-3-yl acetate]",,> 5.00,> 5.00,,> 5.00
"COc1ccc(C[C@H]2NC[C@H](O)[C@H]2OC(=O)CC2NC(=O)CNC2=O)cc1 (stereo partly drawn) [V186862, (2R,3S,4S)-4-hydroxy-2-[(4-methoxyphenyl)methyl]pyrrolidin-3-yl 2-(3,6-dioxopiperazin-2-yl)acetate]",> 5.00,> 5.00,< 4.52,< 4.52,
"COc1ccc(C[C@H]2NC[C@H](O)[C@H]2OC(=O)Cc2ccccn2)cc1 [V187082, (2R,3S,4S)-4-hydroxy-2-[(4-methoxyphenyl)methyl]pyrrolidin-3-yl 2-(pyridin-2-yl)acetate]",> 5.00,> 5.00,> 5.00,> 5.00,
"CC(=O)O[C@@H]1[C@@H](O)CN[C@@H]1Cc1ccc(-c2cn(-c3ccnc(N)n3)nn2)cc1 [V188057, (2R,3S,4S)-2-({4-[1-(2-aminopyrimidin-4-yl)-1,2,3-triazol-4-yl]phenyl}methyl)-4-hydroxypyrrolidin-3-yl acetate]",,> 5.00,> 5.00,,
COc1ccc(C[C@H]2NC[C@H](O)[C@H]2OC(C)=O)cc1Cl [V188046],,> 5.00,> 5.00,,> 5.00
"COc1ccc(C[C@H]2NC[C@H](O)[C@H]2OC(=O)Cc2ccc(Cl)cc2)cc1 [V187055, (2R,3S,4S)-4-hydroxy-2-[(4-methoxyphenyl)methyl]pyrrolidin-3-yl 2-(4-chlorophenyl)acetate; trifluoroacetic acid]",,> 5.00,> 5.00,> 5.00,> 5.00
"COc1ccc(C[C@H]2NC[C@H](O)[C@H]2OC(=O)CC(F)(F)F)cc1 [V187162, (2R,3S,4S)-4-hydroxy-2-[(4-methoxyphenyl)methyl]pyrrolidin-3-yl 3,3,3-trifluoropropanoate; trifluoroacetic acid]",> 5.00,> 5.00,> 5.00,> 5.00,
COc1ccc(C[C@H]2NC[C@H](O)[C@H]2OC(C)=O)cc1C#N [V188045],,< 4.52,< 4.52,,< 4.52
"COc1ccc(C[C@H]2NC[C@H](O)[C@H]2OC(=O)CCc2cocn2)cc1 [V187176, (2R,3S,4S)-4-hydroxy-2-[(4-methoxyphenyl)methyl]pyrrolidin-3-yl 3-(1,3-oxazol-4-yl)propanoate; trifluoroacetic acid]",,> 5.00,> 5.00,> 5.00,
COc1ccc(C[C@H]2NC[C@H](O)[C@H]2OC(C)=O)cc1F [V187569],,> 5.00,> 5.00,,> 5.00
"COc1ccc(C[C@H]2NC[C@H](O)[C@H]2OC(=O)CN2CC(F)(F)C2)cc1 [V187045, (2R,3S,4S)-4-hydroxy-2-[(4-methoxyphenyl)methyl]pyrrolidin-3-yl 2-(3,3-difluoroazetidin-1-yl)acetate; trifluoroacetic acid]",> 5.00,,> 5.00,,
CC(=O)O[C@@H]1[C@@H](O)CN[C@@H]1Cc1ccc(-c2cn(Cc3ccccc3)nn2)cc1 [V187750],> 5.00,> 5.00,> 5.00,> 5.00,
COc1ccc(C[C@H]2NC[C@H](O)[C@H]2OC(=O)CNC2CC(F)(F)C2)cc1 [V187172],> 5.00,> 5.00,> 5.00,> 5.00,
"COc1ccc(C[C@H]2NC[C@H](O)[C@H]2OC(=O)CNC2CC2)cc1 [V187170, (2R,3S,4S)-4-hydroxy-2-[(4-methoxyphenyl)methyl]pyrrolidin-3-yl 2-(cyclopropylamino)acetate]",> 5.00,> 5.00,> 5.00,,
"COc1ccc(C[C@H]2NC[C@](C)(O)[C@H]2OC(C)=O)cc1 [V188182, (2R,3S,4S)-4-hydroxy-2-[(4-methoxyphenyl)methyl]-4-methylpyrrolidin-3-yl acetate]",,< 4.52,,,< 4.52
"COc1ccc(C[C@H]2NC[C@H](O)[C@H]2OC(=O)CCN2C(=O)CNC2=O)cc1 [V186870, (2R,3S,4S)-4-hydroxy-2-[(4-methoxyphenyl)methyl]pyrrolidin-3-yl 3-(2,5-dioxoimidazolidin-1-yl)propanoate]",> 5.00,> 5.00,,4.70 to 5.00,
"CC(=O)O[C@@H]1[C@@H](O)CN[C@@H]1Cc1ccccc1 [V186810, (2R,3S,4S)-2-benzyl-4-hydroxy pyrrolidin-3-yl acetate]",> 5.00,> 5.00,,> 5.00,
"COc1ccc(C[C@H]2NC[C@H](O)[C@H]2OC(=O)C2CCO2)cc1 (stereo partly drawn) [V186865, (2R,3S,4S)-4-hydroxy-2-(4-methoxybenzyl)pyrrolidin-3-yl oxetane-2-carboxylate FA salt]",> 5.00,> 5.00,,< 4.52,
"COc1ccc(C[C@H]2NC[C@H](O)[C@H]2OC(=O)Cc2ccc3ccccc3c2)cc1 [V187123, (2R,3S,4S)-4-hydroxy-2-[(4-methoxyphenyl)methyl]pyrrolidin-3-yl 2-(naphthalen-2-yl)acetate; trifluoroacetic acid]",> 5.00,4.70 to 5.00,,< 4.52,
"COc1ccc(C[C@H]2NC[C@H](O)[C@H]2OC(=O)C2CCC2)cc1 [V186921, (2R,3S,4S)-4-hydroxy-2-[(4-methoxyphenyl)methyl]pyrrolidin-3-ylcyclobutanecarboxylate; trifluoroacetic acid]",,> 5.00,> 5.00,> 5.00,
"COc1ccc(C[C@H]2NC[C@H](O)[C@H]2OC(=O)C2CCOC2)cc1 (stereo partly drawn) [V186761, (2R,3S,4S)-4-hydroxy-2-[(4-methoxyphenyl)methyl]pyrrolidin-3-yl oxolane-3-carboxylate]",> 5.00,> 5.00,,< 4.52,

# Reference: patent US20250091989A1, “SMALL MOLECULE PROTEIN SYNTHESIS MODULATORS” (Interdict Bio, Inc., priority 2023, published 2025)
